Source: patent US8658591B2, “Multi-LEU peptides and analogues thereof as selective PACE4 inhibitors and effective antiproliferative agents” (priority 2008, dated 2014)
Values joined by “and” are separate entries in the source; they are usually repeats but may differ in a detail not shown here. Equal values may be shown once.

Experiments:
[1] = biological target: T1, PC7 (Homo sapiens, UniProt Q16549); assay: Enzyme inhibition assay, fluorogenic substrate, PC7; format: biochemical; conditions: 20 mM Bis-Tis pH 6.5, 1 mM CaCl2, substrate 250 μM, 37° C.
T1 sequence (Q16549 142-785): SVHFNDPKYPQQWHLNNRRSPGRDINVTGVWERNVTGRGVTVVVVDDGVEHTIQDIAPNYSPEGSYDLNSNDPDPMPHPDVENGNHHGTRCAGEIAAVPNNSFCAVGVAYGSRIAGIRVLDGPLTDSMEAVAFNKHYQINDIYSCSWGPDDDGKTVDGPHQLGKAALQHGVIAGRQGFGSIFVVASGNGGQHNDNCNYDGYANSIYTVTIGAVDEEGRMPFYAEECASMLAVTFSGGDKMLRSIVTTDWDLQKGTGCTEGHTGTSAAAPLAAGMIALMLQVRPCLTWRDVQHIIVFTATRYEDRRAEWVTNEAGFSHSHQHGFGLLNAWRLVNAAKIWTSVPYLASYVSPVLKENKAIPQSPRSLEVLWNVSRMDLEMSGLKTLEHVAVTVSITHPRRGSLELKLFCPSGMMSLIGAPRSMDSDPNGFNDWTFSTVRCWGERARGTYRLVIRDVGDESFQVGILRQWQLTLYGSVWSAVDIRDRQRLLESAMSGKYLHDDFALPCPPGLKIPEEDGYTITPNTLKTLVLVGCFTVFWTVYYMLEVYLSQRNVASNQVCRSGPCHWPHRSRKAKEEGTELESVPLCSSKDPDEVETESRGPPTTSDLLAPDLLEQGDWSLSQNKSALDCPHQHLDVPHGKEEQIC
Method: (§1) Enzyme inhibition assays for furin (FIG. 5D) were performed in 100 mM Hepes pH 7.5, 1 mM CaCl2, 1 mM β-mercaptoethanol, 0.5 μg/μL BSA. Assays for PC2 (FIG. 5E) were performed in 20 mM Bis-Tris pH 5,7, 1 mM CaCl2, 0.1% Brij-30. Assays for PC1/3, PC4, PACE4, PC5/6 and PC7 (FIGS. 5F, G, A, B and C respectively) were performed in 20 mM Bis-Tis pH 6.5, 1 mM CaCl2. All assays were performed with the substrate pyroGlu-Arg-[…]-Lys-Arg-methyl-coumaryl-7-amide (SEQ ID NO: 33) (PyrRTKR-MCA (SEQ ID NO: 34)) (Bachem, CA) at 100 μM for furin, PC1/3, PC4, PACE4 and PC5/6, 200 μM for PC2 and 250 μM for PC7. Assays were carried out at 37° C. for 30-60 min and real-time fluorescence was measured with an excitation wavelength of 370 nm and an emission wavelength of 460 nm using a Gemini XS™ 96-well spectrofluorometer and SoftMaxPro4™ software (Molecular Devices, CA). Inhibitory peptides were added to the enzymes at decreasing concentrations from 100 μM to 50 nM and incubated 5 minutes prior to the addition of substrate.

[2] = test system: DU145 cells; assay: Annexin-V-FITC/propidium iodide apoptosis assay, DU145; format: cell-based, human; conditions: DU145, 66 μM, 48 h
Method: The annexin V assay is based on the observation that soon after initiating apoptosis, cells translocate the membrane phosphatidylserine from the inner face of the plasma membrane to the cell surface. Once on the cell surface, phosphatidylserine can be easily detected by staining with a fluorescent conjugate of Annexin V, a protein that has a high affinity for phosphatidylserine. Detection is analyzed by flow cytometry. […] This analysis was performed with a FITC-conjugated annexin-V, which has a strong affinity for these extracellular phosphatidylserines, and the fluorescent intercalating agent propidium iodide (PI). Cell lines were seeded in a 6-well plate at a density of 8×10^4 cells/well in complete growth medium. The next day, cells were washed twice with PBS and complete growth media with or without cisplatin (Sigma) at final concentration of 66 μM were added. After a 48 hours incubation period, growth media were collected and combined to the harvested cells obtained after trypsin treatment. The collected pellets were washed with PBS before staining. Then, cells were stained with the Annexin-V-FLUOS™ Staining Kit (Roche Applied science), which double labeled cells with annexin-V-fluorescein isothiocyanate (FITC) and propidium iodide (PI). Stained cells were then analyzed with FACScan flow cytometer (BD Biosciences).

[3] = test system: 4-2 cells (DU145 transfected with PACE4-SOFA-δRz); assay: Annexin-V-FITC/propidium iodide apoptosis assay, 4-2 cells; format: cell-based, human; conditions: 66 μM, 48 h
Method: To determine if the reduced cell number observed in the 4-2 cell line, described previously in Example 3, was a consequence of the induction of the apoptosis, the translocation of phosphatidylserine from the inner to the outer leaflet of the plasma membrane was analyzed. This analysis was performed with a FITC-conjugated annexin-V, which has a strong affinity for these extracellular phosphatidylserines, and the fluorescent intercalating agent propidium iodide (PI). Cell lines were seeded in a 6-well plate at a density of 8×10^4 cells/well in complete growth medium. The next day, cells were washed twice with PBS and complete growth media with or without cisplatin (Sigma) at final concentration of 66 μM were added. After a 48 hours incubation period, growth media were collected and combined to the harvested cells obtained after trypsin treatment. The collected pellets were washed with PBS before staining. Then, cells were stained with the Annexin-V-FLUOS™ Staining Kit (Roche Applied science), which double labeled cells with annexin-V-fluorescein isothiocyanate (FITC) and propidium iodide (PI). Stained cells were then analyzed with FACScan flow cytometer (BD Biosciences).

[4] = test system: prostatic cell line DU145; assay: MTT cell proliferation index, DU145; format: cell-based, human; conditions: control = 100%, MTT after 48 hours
Method: The effects of the PACE4 inhibitors on cell proliferation were evaluated. MTT assay was used to evaluate the effects of PACE4 inhibitors on cell proliferation. MTT (3-(4,5-Dimethylthiazol-2-yl)-2,5-diphenyltetrazolium bromide) assay is a standard colorimetric assay for measuring cellular proliferation. Yellow MTT is reduced to purple formazan in the mitochondria of living cells. This reduction takes place only when mitochondrial reductase enzymes are active. Conversion is directly related to the number of viable cells. The MTT assay is quantitative and more sensitive than viability using trypan blue and can also be adapted to 96 well formats, whereas trypan blue tests must be read individually. Because the MTT assay requires less cell manipulation than [^3H]thymidine incorporation assays (no cell harvesting or medium changes are necessary), the possibility of error is reduced and the standard deviation values are lower. […] Other assays also known can be used to determine the effects of an inhibitor on the proliferation of a cell.
The index of cellular proliferation of cells treated with the ML and acetyl-ML (CH3CO—NH-[…]-CONH2 (SEQ ID NO: 5), see Table 2) peptides were measured using the colorimetric MTT assay (thiazolyl blue tetrazolium bromide; Sigma-Aldrich). Briefly, cells were seeded in 96-well plate (BD Biosciences) in triplicate with 100 μl of a 3.5×10^4 cells/ml cell suspension in complete growth medium. The following day, cells were carefully washed twice with PBS and media were replaced with 100 μl of either RPMI or conditioned growth media. Conditioned growth medium preparation consists in 1.2×10^5 cells seeded in 6-well plates with complete growth media. The next day, cells are washed twice with PBS and the media are replaced with 1 ml RPMI growth medium. 48 hours later, the conditioned media are collected, filtered through […] syringe filter units and incubated on different cell lines.
48 hours later, 20 μl of a MTT solution (5 mg/ml in PBS 1×) was added to each well for 4.5 h at 37° C./5% CO2. The media was then discarded and the cells were solubilized with 100 μl isopropanol/0.04 N HCl solution. The absorbance was measured at a wavelength of 550 nm with a reference at 650 nm in microplate reader (SpectraMax190™; Molecular Devices).

[5] = test system: sarcofibroma cell line HT1080; assay: MTT cell proliferation index, HT1080; format: cell-based, human
Method: (§2) The effects of the PACE4 inhibitors on cell proliferation were evaluated. MTT assay was used to evaluate the effects of PACE4 inhibitors on cell proliferation. MTT (3-(4,5-Dimethylthiazol-2-yl)-2,5-diphenyltetrazolium bromide) assay is a standard colorimetric assay for measuring cellular proliferation. Yellow MTT is reduced to purple formazan in the mitochondria of living cells. This reduction takes place only when mitochondrial reductase enzymes are active. Conversion is directly related to the number of viable cells. The MTT assay is quantitative and more sensitive than viability using trypan blue and can also be adapted to 96 well formats, whereas trypan blue tests must be read individually. […]
(§3) The index of cellular proliferation of cells treated with the ML and acetyl-ML (CH3CO—NH-[…]-CONH2 (SEQ ID NO: 5), see Table 2) peptides were measured using the colorimetric MTT assay (thiazolyl blue tetrazolium bromide; Sigma-Aldrich). […]
(§4) 48 hours later, 20 μl of a MTT solution (5 mg/ml in PBS 1×) was added to each well for 4.5 h at 37° C./5% CO2. […] The absorbance was measured at a wavelength of 550 nm with a reference at 650 nm in microplate reader (SpectraMax190™; Molecular Devices).

[6] = test system: gliobastoma cell line U251; assay: MTT cell proliferation index, U251; format: cell-based, human
Method: as §2, §3, §4

[7] = biological target: T2, PACE4 (Homo sapiens, UniProt P29122); assay: Enzyme inhibition assay, fluorogenic substrate, PACE4; format: biochemical
T2 sequence (P29122 150-969): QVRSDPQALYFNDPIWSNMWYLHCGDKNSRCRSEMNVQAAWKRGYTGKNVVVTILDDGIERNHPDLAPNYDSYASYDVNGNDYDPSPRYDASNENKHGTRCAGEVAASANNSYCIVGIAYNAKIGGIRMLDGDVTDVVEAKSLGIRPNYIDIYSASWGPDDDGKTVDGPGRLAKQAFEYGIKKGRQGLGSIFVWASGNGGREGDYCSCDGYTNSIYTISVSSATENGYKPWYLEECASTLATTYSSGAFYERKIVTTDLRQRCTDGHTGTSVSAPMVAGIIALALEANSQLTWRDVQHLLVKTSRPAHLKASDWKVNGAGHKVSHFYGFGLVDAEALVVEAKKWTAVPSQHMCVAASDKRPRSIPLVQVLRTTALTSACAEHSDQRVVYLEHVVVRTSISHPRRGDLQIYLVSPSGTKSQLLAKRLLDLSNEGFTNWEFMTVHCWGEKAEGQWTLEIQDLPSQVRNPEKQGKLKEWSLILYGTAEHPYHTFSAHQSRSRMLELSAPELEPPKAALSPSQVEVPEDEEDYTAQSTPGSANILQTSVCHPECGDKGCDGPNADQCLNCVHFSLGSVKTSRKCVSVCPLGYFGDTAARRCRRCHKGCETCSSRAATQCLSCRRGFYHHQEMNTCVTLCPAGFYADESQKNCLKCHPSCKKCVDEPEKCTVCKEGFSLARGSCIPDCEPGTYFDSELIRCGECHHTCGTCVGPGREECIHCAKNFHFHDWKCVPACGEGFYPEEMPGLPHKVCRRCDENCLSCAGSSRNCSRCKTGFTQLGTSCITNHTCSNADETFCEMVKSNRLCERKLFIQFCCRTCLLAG
Excerpt: Those skilled in the art can easily determine PACE4 activity using routine experimentation. For example, the activity assay of PACE4 can be carried out in 96 well plates, and includes the use of a fluorogenic substrate, namely PyrRTKR-AMC (SEQ ID NO: 30) (AMC is amino-methyl-coumarin). The substrate and the purified enzyme are placed in the wells, and depending on the units of enzyme present, the AMC moiety will be cleaved at a certain rate, such a pmoles/sec. The resultant free AMC is now fluorescent and can be detected with a spectrofluorometer. The addition of inhibitors to the assay will yield progress curves that have lesser slopes. Based on these changes the inhibitory constants (Ki) is calculated (Fugere et al., 2002, J. Biol. Chem., 277:7648-56).
as §1

[8] = biological target: furin (Homo sapiens, UniProt P09958); assay: Enzyme inhibition assay, fluorogenic substrate, furin; format: biochemical
Sequence of furin (P09958 108-794, species assumed): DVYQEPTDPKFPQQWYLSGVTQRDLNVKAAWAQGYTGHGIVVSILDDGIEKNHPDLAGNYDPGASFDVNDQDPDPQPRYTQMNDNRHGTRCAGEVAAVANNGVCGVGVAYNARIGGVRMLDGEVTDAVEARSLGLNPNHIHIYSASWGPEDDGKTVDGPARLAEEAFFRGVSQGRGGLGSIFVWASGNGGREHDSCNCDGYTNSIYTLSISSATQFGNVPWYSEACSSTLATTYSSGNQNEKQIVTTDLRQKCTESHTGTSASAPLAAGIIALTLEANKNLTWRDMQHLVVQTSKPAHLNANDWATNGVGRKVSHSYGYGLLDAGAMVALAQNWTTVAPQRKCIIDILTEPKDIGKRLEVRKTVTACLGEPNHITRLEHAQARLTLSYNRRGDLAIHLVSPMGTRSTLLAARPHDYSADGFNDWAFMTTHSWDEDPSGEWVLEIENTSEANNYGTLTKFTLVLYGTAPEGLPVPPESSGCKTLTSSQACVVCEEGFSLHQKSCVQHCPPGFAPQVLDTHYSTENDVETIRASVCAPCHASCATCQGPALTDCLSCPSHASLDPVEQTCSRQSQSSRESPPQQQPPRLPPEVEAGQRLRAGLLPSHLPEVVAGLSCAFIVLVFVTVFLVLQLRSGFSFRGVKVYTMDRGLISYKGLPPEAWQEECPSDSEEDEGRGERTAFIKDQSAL
Method: as §1

[9] = biological target: T3, PC1/3 (Homo sapiens, UniProt P29120); assay: Enzyme inhibition assay, fluorogenic substrate, PC1/3; format: biochemical
T3 sequence (P29120 111-753): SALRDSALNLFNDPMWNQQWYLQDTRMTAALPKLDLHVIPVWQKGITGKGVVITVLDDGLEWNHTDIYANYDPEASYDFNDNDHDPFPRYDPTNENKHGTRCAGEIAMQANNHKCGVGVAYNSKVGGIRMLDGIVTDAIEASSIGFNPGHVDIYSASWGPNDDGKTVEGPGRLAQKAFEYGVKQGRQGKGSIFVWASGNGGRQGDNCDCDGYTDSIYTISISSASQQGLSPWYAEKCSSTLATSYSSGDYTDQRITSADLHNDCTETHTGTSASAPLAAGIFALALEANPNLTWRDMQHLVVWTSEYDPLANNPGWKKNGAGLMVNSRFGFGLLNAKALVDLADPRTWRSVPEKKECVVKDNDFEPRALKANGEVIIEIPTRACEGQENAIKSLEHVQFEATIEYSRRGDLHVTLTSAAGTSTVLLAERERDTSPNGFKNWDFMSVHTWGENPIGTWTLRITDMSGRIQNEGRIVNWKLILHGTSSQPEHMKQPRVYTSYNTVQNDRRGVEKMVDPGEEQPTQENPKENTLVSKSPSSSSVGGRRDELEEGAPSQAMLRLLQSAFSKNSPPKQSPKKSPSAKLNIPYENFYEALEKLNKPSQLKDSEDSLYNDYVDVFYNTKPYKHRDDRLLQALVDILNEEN
Method: as §1

[10] = biological target: PC5/6 (Homo sapiens, UniProt Q92824); assay: Enzyme inhibition assay, fluorogenic substrate, PC5/6; format: biochemical
Sequence of PC5/6 (Q92824 115-1860): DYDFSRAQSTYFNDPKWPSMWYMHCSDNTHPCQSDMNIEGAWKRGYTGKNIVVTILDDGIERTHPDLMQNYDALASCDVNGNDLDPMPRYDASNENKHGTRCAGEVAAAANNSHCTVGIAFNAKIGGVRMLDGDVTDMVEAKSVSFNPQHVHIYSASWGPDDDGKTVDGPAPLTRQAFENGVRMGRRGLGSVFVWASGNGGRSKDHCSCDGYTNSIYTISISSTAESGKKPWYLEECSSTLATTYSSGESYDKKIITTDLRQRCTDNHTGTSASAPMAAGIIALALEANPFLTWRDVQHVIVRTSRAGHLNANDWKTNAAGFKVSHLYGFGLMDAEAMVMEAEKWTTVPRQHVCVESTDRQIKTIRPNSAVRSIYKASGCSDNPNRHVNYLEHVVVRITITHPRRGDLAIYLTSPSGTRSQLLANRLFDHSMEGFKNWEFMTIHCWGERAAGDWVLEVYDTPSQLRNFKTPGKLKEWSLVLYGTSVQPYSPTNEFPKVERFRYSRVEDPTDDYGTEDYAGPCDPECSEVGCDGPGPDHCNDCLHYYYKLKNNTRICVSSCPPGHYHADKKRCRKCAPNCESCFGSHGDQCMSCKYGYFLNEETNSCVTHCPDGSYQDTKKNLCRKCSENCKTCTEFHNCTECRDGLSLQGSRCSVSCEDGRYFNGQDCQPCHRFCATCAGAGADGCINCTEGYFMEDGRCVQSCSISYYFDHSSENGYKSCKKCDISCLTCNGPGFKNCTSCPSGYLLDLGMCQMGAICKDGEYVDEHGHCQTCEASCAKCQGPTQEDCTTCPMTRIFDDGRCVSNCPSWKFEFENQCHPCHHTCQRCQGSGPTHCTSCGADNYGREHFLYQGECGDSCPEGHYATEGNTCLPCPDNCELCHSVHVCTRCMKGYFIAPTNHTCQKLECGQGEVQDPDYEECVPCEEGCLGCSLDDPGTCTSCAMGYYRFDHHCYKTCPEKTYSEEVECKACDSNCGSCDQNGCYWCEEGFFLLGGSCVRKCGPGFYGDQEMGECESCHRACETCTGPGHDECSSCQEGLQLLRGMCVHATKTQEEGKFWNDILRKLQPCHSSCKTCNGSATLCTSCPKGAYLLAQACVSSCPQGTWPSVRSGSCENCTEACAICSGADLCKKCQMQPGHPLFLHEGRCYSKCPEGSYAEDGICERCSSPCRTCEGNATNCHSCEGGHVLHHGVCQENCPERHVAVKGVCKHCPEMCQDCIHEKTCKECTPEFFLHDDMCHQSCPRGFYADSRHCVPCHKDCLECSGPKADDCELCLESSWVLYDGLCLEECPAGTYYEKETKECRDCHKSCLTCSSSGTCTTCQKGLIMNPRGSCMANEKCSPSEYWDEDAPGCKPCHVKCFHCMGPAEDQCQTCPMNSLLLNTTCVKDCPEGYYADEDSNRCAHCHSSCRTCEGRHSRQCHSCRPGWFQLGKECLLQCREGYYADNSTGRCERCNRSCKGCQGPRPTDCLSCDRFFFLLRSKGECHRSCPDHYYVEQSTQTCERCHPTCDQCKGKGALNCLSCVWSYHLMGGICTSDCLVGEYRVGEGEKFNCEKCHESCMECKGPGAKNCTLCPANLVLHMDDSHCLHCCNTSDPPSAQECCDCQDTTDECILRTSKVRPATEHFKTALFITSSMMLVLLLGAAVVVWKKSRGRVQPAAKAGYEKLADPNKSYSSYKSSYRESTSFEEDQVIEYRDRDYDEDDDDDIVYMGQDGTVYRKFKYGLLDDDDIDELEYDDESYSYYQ
Method: as §1

Compound	Ki [1]	Cell proliferation index ([4]; DU145, 1 μM peptide) [%]	Cell proliferation index ([4]; DU145, 10 μM peptide) [%]	Cell proliferation index ([4]; DU145, 50 μM peptide) [%]	Cell proliferation index ([4]; DU145, 100 μM peptide) [%]	effect on cell proliferation index, in words [5]	effect on cell proliferation index, in words [6]	inhibition potency on furin, in words [8]	other results
CC(C)C[C@H](NC(=O)[C@H](CC(C)C)NC(=O)[C@H](CC(C)C)NC(=O)[C@@H](N)CC(C)C)C(=O)N[C@@H](CC(C)C)C(=O)N[C@@H](CCCNC(=N)N)C(=O)N[C@H](C(=O)N[C@@H](CCCCN)C(=O)N[C@@H](CCCNC(=N)N)C(N)=O)C(C)C [5 Leu]	35 to 50 nM								
N.N.[Cl][Pt][Cl] [cisplatin]									annexin-V positivity ([2]; untreated 2%): 30%; PI staining (dead cells) ([2]; untreated 6%): 12%; annexin-V positivity ([3]; untreated 3%): 17%; PI staining (dead cells) ([3]; untreated 7%): 16%
CH3CO—NH-LLLLRVKR-NH2 (Ac-LLLLRVKR-NH2) [acetyl ML]		63.84	41.91	25.79	24.05	significant effects	significant effects		
H-LLLLRVKR-NH2 [ML]	35 to 50 nM and 50 nM	97.73	92.03	72.57	54.70	significant effects	significant effects		inhibition potency on PACE4, in words [7]: nanomolar range; Ki ([7]; 20 mM Bis-Tis pH 6.5, 1 mM CaCl2, substrate 100 μM, 37° C.): 6 nM; more effective on PACE4 than the other PCs ([7]; ratio of Ki values, other PCs vs PACE4): ≥ 9 folds
LLRVKR [LLRVKR—NH2, LLRVKR-NH2]								mid-nanomolar inhibitors	inhibition potency on PC1/3, in words [9]: best inhibited; inhibition potency on PC5/6, in words [10]: mid-low nanomolar range
LRVKR [LRVKR—NH2, LRVKR-NH2]								mid-nanomolar inhibitors	
